This is an account of results in PubChem BioAssay (NCI).

Usually TGI stands for the concentration at which net growth stops.

Among the test systems are SNB-19 CNS; DU-145 prostate; MCF7 breast; SN12C renal; MDA-MB-231 breast; RXF 393 renal; SF-295 CNS; PC-3 prostate; OVCAR-5 ovarian; UACC-62 melanoma; HS 578T breast.
What all share (assay): DTP human tumour cell line panel, 48 h

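Step 1: Grow cells in 96-well plates. Step 2: Expose to compound for 48 hours at 5 concentrations. Step 3: Interpolate endpoints linearly; if unreached, use highest concentration. The concentration for full growth arrest is given as TGI.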 Where a SMILES comes first, the peptide text is derived from it. The star is where a group is joined. Cbz = O=C(OCc1ccccc1)*

For the compound `CC(=O)NC1C(Sc2ncn(C3OC(CO)C(O)C(O)C3NC(C)=O)n2)OC(CO)C(O)C1O` (stereo unspecified), the TGI in the test with SNB-19 CNS, in the test with DU-145 prostate, in the test on MCF7 breast, in the test with SN12C renal, with MDA-MB-231 breast and in the test with RXF 393 renal was over 100 µM in each case. Besides, the TGI in the test on SF-295 CNS, in the test with PC-3 prostate, in the test on OVCAR-5 ovarian, in the test with UACC-62 melanoma and in the test with HS 578T breast was over 100 µM each time.

For the compound `O=C1C(Br)=CC2(C=C1Br)CCNC1=C2C(=O)c2ncccc2C1=O`, the concentration for total growth inhibition (TGI) was 2.77 µM with SNB-19 CNS; 3.06 µM in the test on DU-145 prostate; 2.78 µM in the test with MCF7 breast; 2.5 µM with SN12C renal; 3.67 µM in the test on MDA-MB-231 breast; 2.65 µM in the test with RXF 393 renal. The TGI in the test on SF-295 CNS stood at 2.74 µM; in the test on PC-3 prostate, 8.59 µM; in the test on OVCAR-5 ovarian, 3.09 µM; in the test with UACC-62 melanoma it was 1.84 µM; in the test on HS 578T breast it was 5.34 µM.

For the compound `CCCCC1Cc2cc(O)ccc2-c2nc3cc(O)ccc3n21` (stereo unspecified) (tested in a mixture with another compound), the TGI with SNB-19 CNS was 26.3 µM; with DU-145 prostate, over 100 µM; with MCF7 breast, 37.5 µM; in the test with SN12C renal, 36 µM; with MDA-MB-231 breast, 31.3 µM; in the test on RXF 393 renal it was 35.6 µM. Further, the TGI in the test on SF-295 CNS was 33.4 µM; in the test with PC-3 prostate, 53.3 µM; with OVCAR-5 ovarian, 34.8 µM; in the test with UACC-62 melanoma it was 25.5 µM; in the test with HS 578T breast, 35.1 µM.

Take `Oc1c(Br)ccc2cccnc12`: the TGI is over 100 µM in the test on SNB-19 CNS; over 68.8 µM in the test with DU-145 prostate; 2.73 µM in the test with MCF7 breast; over 100 µM in the test on SN12C renal; 24.7 µM in the test with MDA-MB-231 breast; 32.4 µM in the test with RXF 393 renal. For the same compound, the TGI was 14.9 µM with SF-295 CNS; over 100 µM in the test with PC-3 prostate; over 100 µM in the test with OVCAR-5 ovarian; 7 µM in the test on UACC-62 melanoma; 72.5 µM in the test on HS 578T breast.

`CCCCCCCCCCCC(=O)OC[C@@H](C[As](=O)(O)O)OC(=O)CCCCCCCCCCC`: the TGI was determined as 10.8 µM in the test with SNB-19 CNS; 36.6 µM in the test on DU-145 prostate; 9.24 µM with MCF7 breast; 19.8 µM in the test with SN12C renal; 15.4 µM with MDA-MB-231 breast; 6.99 µM with RXF 393 renal. In addition, the TGI with SF-295 CNS worked out at 27.1 µM; in the test on PC-3 prostate, 8.14 µM; with OVCAR-5 ovarian, 30.8 µM; in the test on UACC-62 melanoma it was 6.94 µM; in the test on HS 578T breast it was 29.4 µM.

For `Cc1ccnc2c1C(=O)C1=C(OC(C)(C)CC1O)C2=O` (stereo unspecified), the concentration for total growth inhibition (TGI) in the test on SNB-19 CNS is 21.1 µM; in the test with DU-145 prostate it was 17.2 µM; with MCF7 breast, 7.94 µM; in the test with SN12C renal, 12.4 µM; with MDA-MB-231 breast, 15.4 µM; in the test with RXF 393 renal, 23 µM. The TGI in the test on SF-295 CNS was determined as 8.79 µM; in the test with PC-3 prostate, 13 µM; with OVCAR-5 ovarian, 20.6 µM; with UACC-62 melanoma, 3.25 µM; with HS 578T breast, 15.2 µM.

In the case of `CC(NC(=O)c1c(O)[nH]c(=S)[nH]c1=O)c1ccc([N+](=O)[O-])cc1` (stereo unspecified), the TGI in the test with SNB-19 CNS, with DU-145 prostate, in the test with MCF7 breast, in the test with SN12C renal, in the test on MDA-MB-231 breast and in the test on RXF 393 renal was over 100 µM each time. Besides, the TGI in the test on SF-295 CNS, in the test on PC-3 prostate, in the test with OVCAR-5 ovarian, with UACC-62 melanoma and in the test with HS 578T breast was over 100 µM in each case.

For the compound `CCOC(=O)CCC(NC(=O)OCc1ccccc1)C(=O)NC(CCC(=O)OCC)C(=O)OCC` (stereo unspecified) (Cbz-Glu(OEt)-Glu(OEt)-OEt; configuration not given here), the TGI in the test with SNB-19 CNS, with DU-145 prostate, in the test with MCF7 breast, in the test with SN12C renal, with MDA-MB-231 breast and with RXF 393 renal was over 100 µM each time. Besides, the TGI in the test on SF-295 CNS, with PC-3 prostate, in the test on OVCAR-5 ovarian, in the test with UACC-62 melanoma and with HS 578T breast was over 100 µM in each case.

As to `NCCCN(CCCN)CCc1cn(C(=O)c2ccccc2)cn1`, the TGI in the test on SNB-19 CNS was 33.6 µM; in the test with DU-145 prostate it was 11.3 µM; in the test with MCF7 breast, 11.4 µM; in the test with SN12C renal, 26.2 µM; with MDA-MB-231 breast it was 28.8 µM; in the test on RXF 393 renal, 8.89 µM. The TGI in the test with SF-295 CNS worked out at 30.7 µM; in the test on PC-3 prostate, 21.5 µM; with OVCAR-5 ovarian, 33.4 µM; in the test with UACC-62 melanoma, 23 µM; in the test with HS 578T breast it was 86.5 µM.

For the compound `CC(NC(=O)Cc1ccccc1)NC(=O)C(C)C(=O)NCc1ccccc1` (stereo unspecified), the TGI is 58.8 µM in the test with SNB-19 CNS; over 100 µM in the test on DU-145 prostate; over 100 µM in the test with MCF7 breast; over 100 µM in the test with SN12C renal; over 100 µM in the test on MDA-MB-231 breast; over 100 µM with RXF 393 renal. The TGI was over 100 µM with SF-295 CNS; over 100 µM in the test on PC-3 prostate; over 100 µM in the test on OVCAR-5 ovarian; over 100 µM with UACC-62 melanoma; 83.3 µM with HS 578T breast.

Consider `CC(=O)OCC1OC(n2c(C)c(N=Nc3ccc(Cl)cc3)c(C)c(C#N)c2=S)C(OC(C)=O)C(OC(C)=O)C1OC(C)=O` (stereo unspecified), for which the TGI with SNB-19 CNS is over 100 µM; with DU-145 prostate, over 100 µM; in the test with MCF7 breast it was over 100 µM; in the test on SN12C renal it was over 100 µM; in the test with MDA-MB-231 breast it was over 100 µM; with RXF 393 renal, 40.7 µM. The TGI in the test on SF-295 CNS is 76.5 µM; in the test with PC-3 prostate, over 100 µM; with OVCAR-5 ovarian, over 100 µM; with UACC-62 melanoma, over 100 µM; in the test on HS 578T breast it was 68 µM.
